Like-named read-outs stand apart in the source and are kept apart here.
What was measured:
[1] = tested on: pseudo-normal human embryonic liver cell line (L02); assay: MTT assay, pseudo-normal L02 cells; assay type: cell-based; details: L02, 100 µM, mean ± SD of three independent experiments
Method: (§1) Methods for in vitro anti-proliferative assay [Cell lines]: In the current investigation, hepatocellular carcinoma cell lines (HEPG-2), human lung carcinoma (A549) and human breast carcinoma cell line (MCF-7) and pseudo-normal human embryonic liver cellline (L02) were used for antiproliferative activity, the cell lines were obtained from NCL, Pune. The growth medium used is the DMEM (Dulbecco's modified Eagle's growth medium) having 10% FBS (fetal bovine serum), 10 µg/ml of insulin (Sigma) and 1% penicillin/streptomycin. The used reagents and chemicals were purchased from Sigma or Invitrogen. 100 µl of each compound was added to cells with density of 1.2 – 1.8 × 10,000 cells/well containing 100 µl growth medium in a 96-well plate for 24 h previous to performing the MTT assay.
(§2) MTT assay: MTT (3-[4,5-dimethylthiazole-2-yl]-2,5-diphenyltetrazolium bromide) was used to determine the anti-proliferative activity. Cells were incubated in a moist environment for 24 hours at 37℃. The cells were then treated with various concentrations of the studied substances (0.01, 0.1, 1.0, 10, 50, 100 µM). The media was removed, and the cells were treated for 2 hours with a 5% MTT ([…]) solution/well, allowing the dye to metabolize to colored-insoluble formazan crystals. The remaining solution was discarded and acidified isopropanol was then added for around 30 minutes to dissolve the formazan crystals, which were encased in aluminum foil at room temperature. The absorbance of each well was measured at 450 nm using an Elisa reader. The cell viability was expressed as a percentage of control, and the GI50 was calculated using Graph Pad Prism program (Graph Pad software Inc, CA).

[2] = tested on: hepatocellular carcinoma cell lines (HEPG-2); assay: MTT anti-proliferative assay, HepG-2; assay type: cell-based, human; details: mean ± SD of three independent experiments, read-out: Growth inhibition, GI50
Method: as §1, §2

[3] = tested on: human lung carcinoma cell line (A549); assay: MTT anti-proliferative assay, A549; assay type: cell-based; details: mean ± SD of three independent experiments, read-out: Growth inhibition, GI50
Method: as §1, §2

[4] = tested on: human breast carcinoma cell line (MCF-7); assay: MTT anti-proliferative assay, MCF-7; assay type: cell-based; details: MCF7, MCF-7, MTT, mean ± SD of three independent experiments, read-out: Growth inhibition, GI50
Method: as §1, §2

[5] = tested on: breast carcinoma cell line (MCF-7); assay: Annexin V-FITC/PI assay (flow cytometry); assay type: cell-based, human; details: 24 h
Method: The early stages of apoptosis were monitored by Annexin V-FITC (apoptotic cell marker) and PI (necrotic cell marker) double staining. The staining method was used according to the Annexin FITC/PI staining kit (Invitrogen™, Thermo Fisher Scientific Inc.). Annexin V- FITC/PI assay was performed to inspect the extent of programmed cell death (Fig. 3, apoptosis) by the compounds 4c, 4j and 8f on breast carcinoma cell line (MCF-7). The cells were treated with increasing concentrations (5–10 μM) for 24 h and analyzed by flow cytometry.
Annexin V-FITC/PI Assay: The early stages of apoptosis were monitored by Annexin V-FITC (apoptotic cell marker) and PI (necrotic cell marker) double staining. The staining method was used according to the Annexin FITC/PI staining kit (Invitrogen™, Thermo Fisher Scientific Inc.). Briefly, cells were washed in PBS twice and resuspended in 500 μl of PBS plus Annexin V-FITC and PI. For each sample at least 1×10^4 cells should be analysed using an FACS cytometer.

[6] = Homo sapiens, HepG2, HepG-2, MTT

Compound	GI50 ([2]; HepG-2, MTT)	GI50 [2, 6]	GI50 ([3]; A549, MTT)	GI50 ([3]; Homo sapiens, A549, A549, MTT)	GI50 [4]	inhibition at 100 µM [1]	Q2 late apoptotic cells ([5]; MCF-7, 5 μM)	Q3 live cells ([5]; MCF-7, 5 μM)	Q2 late apoptotic cells ([5]; MCF-7, 10 μM)	Q3 live cells ([5]; MCF-7, 10 μM)	Q1 necrotic cells ([5]; MCF-7, 5 μM)	Q1 necrotic cells ([5]; MCF-7, 10 μM)
O=C(CCl)Nc1nc(-c2ccc(Br)cc2)cs1 [4b]	3.62 ± 0.14 µM	3.92 µM	2.97 ± 0.19 µM	3.86 µM	–	17.8 ± 0.51%	–	–	–	–	–	–
Cc1ccc(-c2csc(NC(=O)CCl)n2)cc1 [4e]	–	7.28 ± 0.16 µM	–	13.7 ± 0.34 µM	31.8 ± 0.46 µM	15.9 ± 0.24%	–	–	–	–	–	–
O=C(CCl)Nc1nc(-c2ccccc2)cs1 [4a]	–	12.9 ± 0.25 µM	–	18.7 ± 0.41 µM	23.8 ± 0.24 µM	21.6 ± 0.43%	–	–	–	–	–	–
COc1cccc(-c2csc(NC(=O)CCl)n2)c1 [4j]	–	2.38 ± 0.24 µM	–	2.61 ± 0.12 µM	1.82 ± 0.21 µM	17.3 ± 0.23%	34.84%	42.81%	40.33%	32.80%	–	–
O=C(CCl)Nc1nc(-c2ccc(F)cc2)cs1 [4g]	–	22.7 ± 0.46 µM	–	17.5 ± 0.26 µM	36.7 ± 0.41 µM	16.3 ± 0.21%	–	–	–	–	–	–
O=C(CCl)Nc1nc(-c2cc3ccccc3oc2=O)cs1 [4k]	–	14.3 ± 0.28 µM	–	25.3 ± 0.39 µM	26.4 ± 0.28 µM	23 ± 0.35%	–	–	–	–	–	–
CCOC(=O)c1sc(NC(=O)CCl)nc1C [4l]	–	29.8 ± 0.34 µM	–	32.9 ± 0.46 µM	37.26 ± 0.37 µM	26 ± 0.47%	–	–	–	–	–	–
O=C(CCl)Nc1nc(-c2ccc([N+](=O)[O-])cc2)cs1 [4f]	–	18.9 ± 0.29 µM	–	19.2 ± 0.32 µM	29.4 ± 0.32 µM	28.16 ± 0.27%	–	–	–	–	–	–
COc1ccc(-c2csc(NC(=O)CCl)n2)cc1 [4d]	–	8.37 ± 0.23 µM	–	15.4 ± 0.23 µM	26.5 ± 0.32 µM	12.8 ± 0.22%	–	–	–	–	–	–
O=C(CCl)Nc1nc(-c2cccc(Br)c2)cs1 [4i]	–	16 ± 0.43 µM	–	31.4 ± 0.36 µM	33.74 ± 0.32 µM	17.6 ± 0.38%	–	–	–	–	–	–
O=C(CCl)Nc1nc(-c2cccc([N+](=O)[O-])c2)cs1 [4h]	–	25.81 ± 0.23 µM	–	28.6 ± 0.47 µM	38.15 ± 0.27 µM	18.4 ± 0.34%	–	–	–	–	–	–
O=C(CCl)Nc1nc(-c2ccc(Cl)cc2)cs1 [4c]	–	3.92 ± 0.17 µM	–	3.86 ± 0.22 µM	2.63 ± 0.14 µM	18.4 ± 0.48%	–	62.43%	–	42.19%	–	–
COc1cccc2c1C(=O)c1c(O)c3c(c(O)c1C2=O)C[C@@](O)(C(=O)CO)C[C@@H]3O[C@H]1C[C@H](N)[C@H](O)[C@H](C)O1 [doxorubicin, reference compound]	–	3.87 ± 0.16 µM	–	3.26 ± 0.24 µM	4.15 ± 0.18 µM	82.2 ± 1.26%	–	–	–	–	–	–

Second part, led by results:

GI50 ([2]; HepG-2, MTT)	GI50 [2, 6]	GI50 ([3]; A549, MTT)	GI50 ([3]; Homo sapiens, A549, A549, MTT)	GI50 [4]	Compound	inhibition at 100 µM [1]	Q2 late apoptotic cells ([5]; MCF-7, 5 μM)	Q3 live cells ([5]; MCF-7, 5 μM)	Q2 late apoptotic cells ([5]; MCF-7, 10 μM)	Q3 live cells ([5]; MCF-7, 10 μM)	Q1 necrotic cells ([5]; MCF-7, 5 μM)	Q1 necrotic cells ([5]; MCF-7, 10 μM)
–	26.8 ± 0.28 µM	–	36.2 ± 0.39 µM	34.87 ± 0.31 µM	Nc1nnc(SCC(=O)Nc2nc(-c3ccccc3)cs2)s1 [8a, 2-(5-amino-1,3,4-thiadiazol-2-ylthio)-N-(4-phenylthiazol-2-yl) acetamide]	22.6 ± 0.42%	–	–	–	–	–	–
–	4.12 ± 0.18 µM	–	7.86 ± 0.24 µM	20.7 ± 0.36 µM	Nc1nnc(SCC(=O)Nc2nc(-c3ccc(Cl)cc3)cs2)s1 [8c, 2-(5-amino-1,3,4-thiadiazol-2-ylthio)-N-(4-(4-chlorophenyl)thiazol-2-yl) acetamide]	18.2 ± 0.22%	–	–	–	–	–	–
–	2.53 ± 0.1 µM	–	2.85 ± 0.18 µM	2.98 ± 0.15 µM	COc1ccc(-c2csc(NC(=O)CSc3nnc(N)s3)n2)cc1 [8d, 2-(5-amino-1,3,4-thiadiazol-2-ylthio)-N-(4-(4-methoxyphenyl)thiazol-2-yl) acetamide]	21.8 ± 0.38%	–	–	–	–	–	–
–	18.3 ± 0.34 µM	–	29.8 ± 0.37 µM	28 ± 0.34 µM	Cc1ccc(-c2csc(NC(=O)CSc3nnc(N)s3)n2)cc1 [8e, 2-(5-amino-1,3,4-thiadiazol-2-ylthio)-N-(4-p-tolylthiazol-2-yl) acetamide]	23.8 ± 0.42%	–	–	–	–	–	–
–	3.46 ± 0.13 µM	–	4.64 ± 0.23 µM	3.71 ± 0.26 µM	Nc1nnc(SCC(=O)Nc2nc(-c3ccc([N+](=O)[O-])cc3)cs2)s1 [8f, 2-(5-amino-1,3,4-thiadiazol-2-ylthio)-N-(4-(4-nitrophenyl)thiazol-2-yl) acetamide]	20.6 ± 0.37%	14.62%	59.08%	37.15%	46.14%	16.99%	12.44%
–	5.86 ± 0.24 µM	–	18.4 ± 0.46 µM	4.07 ± 0.19 µM	Nc1nnc(SCC(=O)Nc2nc(-c3ccc(Br)cc3)cs2)s1 [8b, 2-(5-amino-1,3,4-thiadiazol-2-ylthio)-N-(4-(4-bromophenyl)thiazol-2-yl) acetamide]	15.8 ± 0.28%	–	–	–	–	–	–
